# Assay results taken from patent publication US11040053B2, “Compositions and methods for activating “stimulator of interferon gene”13 dependent signalling” (CHINOOK THERAPEUTICS, INC., priority 2015, dated 2021).
# Experiments:
# [1] = target: T1, HAQ allele hSTING (Homo sapiens, UniProt Q86WV6, G230A/H232R/R293Q); assay: Differential scanning fluorometry (DSF) binding to purified hSTING HAQ allele; conditions: for hSTING Tm Shift HAQ: DSF, 1 mg/ml STING AA140-379, ligand 1 mM
# T1 construct: DNA encoding amino acids 140-379 (amino acid numbering corresponding to Swiss Prot Q86WV6); 6xHIS (N, cleaved yes); SUMO (N, cleaved yes); made in house; host or cells: Rosetta2 (DE3) E. coli
# Protocol: (§1) Cells were grown in lysogeny broth at 37° C. until a […] absorbance of 0.6 was reached. […] Cell pellets were re-suspended on ice in a buffer containing 50 mM Tris hydrochloride (Tris-HCl) pH 7.5, 500 mM sodium chloride (NaCl), 20 mM imidazole, 10% glycerol, 1 mM tris(2-carboxyethyl)phosphine hydrochloride (TCEP) and protease inhibitor tablet (Pierce) (Buffer A). Cells were lysed using an S-450D sonifier (Emmerson industrial) on ice. […] Protein was aliquoted, flash frozen in liquid nitrogen and stored at −80° C. until use.
# (§2) The protein is heated in the presence of a dye that binds to and fluoresces in hydrophobic environments. The protein is thermally denatured by heating resulting in increased dye binding to the unfolded protein and fluorescence. The temperature midpoint (Tm) of a proteins denaturation is established by calculating the half maximal value of the denaturation curve. The temperature midpoint of the protein in the presence of a ligand is directly related to the affinity of the ligand for the protein and therefore its ability to stabilize the protein at higher temperatures.
# (§3) Samples were placed in hard shell PCR plate (Bio-Rad). The fluorescence as a function of temperature was recorded in a CFX 96 real time PCR machine (Bio-Rad) reading on the HEX channel, excitation 450-490, emission 560-580 nm. The temperature gradient was from 15-80° C. ramping 0.5° C. per 15 seconds and recording every 0.5° C. After subtraction of the background signal from a sample lacking protein and ligand. The midpoint temperature (Tm) was calculated by fitting the curves of the fluorescence as a function of temperature to a Boltzmann sigmoidal function (Graph Pad Prism).
# [2] = target: hSTING(WT) (Homo sapiens, UniProt Q86WV6, H232R); assay: Differential scanning fluorometry (DSF) binding to purified hSTING WT; set-up: DNA encoding amino acids 140-379 (amino acid numbering corresponding to Swiss Prot Q86WV6); 6xHIS (N, cleaved yes); SUMO (N, cleaved yes); made in house; host or cells: Rosetta2 (DE3) E. coli; conditions: for hSTING Tm Shift WT: DSF, 1 mg/ml STING AA140-379, ligand 1 mM
# Protocol: as §1, §2, §3
# [3] = target: hSTING(REF) (Homo sapiens, UniProt Q86WV6); assay: Differential scanning fluorometry (DSF) binding to purified hSTING REF allele; set-up: DNA encoding amino acids 140-379 (amino acid numbering corresponding to Swiss Prot Q86WV6); 6xHIS (N, cleaved yes); SUMO (N, cleaved yes); made in house; host or cells: Rosetta2 (DE3) E. coli; conditions: for hSTING Tm Shift REF: DSF, 1 mg/ml STING AA140-379, ligand 1 mM; for binding relative to OH reference compound, in words: Table 4 comment, REF allele hSTING
# Protocol: as §1, §2, §3
# [4] = target: T2, hSTING HAQ allele (Homo sapiens, UniProt Q86WV6, G230A/H232R/R293Q/R71H); assay: IRF-3 inducible secreted luciferase reporter in THP1-Dual cells without digitonin; type: cell-based; conditions: for EC50: without digitonin in THP1 cells (HAQ allele)
# T2 construct: a human monocyte cell line containing the hSTING HAQ allele; host or cells: THP1-Dual cells
# Protocol: After 30 minutes, cells were washed and fresh RPMI media containing 10% FBS was added, and cells were incubated at 37° C. with 5% CO2 Cell culture supernatants from each sample were collected after overnight incubation, and 10 μL of the cell culture supernatants was added to 50 μL QUANTI-Luc reagent (Invivogen). Type I interferon activation was determined by measuring secreted luciferase levels on a SpectraMax M3 spectrophotometer (Molecular Devices). The EC50 value was determined from the dose-response curve for the 10 concentrations from the serial dilution of the reference compounds and compounds of the invention tested in this assay as listed in Table 5.
# hSTING(WT), sequence (Q86WV6 140-379 H232R): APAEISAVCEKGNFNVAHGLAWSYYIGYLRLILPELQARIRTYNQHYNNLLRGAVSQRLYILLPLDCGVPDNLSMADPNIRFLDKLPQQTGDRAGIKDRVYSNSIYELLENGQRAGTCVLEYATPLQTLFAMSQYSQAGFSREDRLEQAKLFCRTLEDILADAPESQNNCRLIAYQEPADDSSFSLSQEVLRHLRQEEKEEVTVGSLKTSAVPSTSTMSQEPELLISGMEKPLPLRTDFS
# hSTING(REF), sequence (Q86WV6 140-379): as the sequence (Q86WV6 140-379 H232R) above, with R93H counted along it
# T2 sequence (Q86WV6 whole entry R71H/G230A/H232R/R293Q): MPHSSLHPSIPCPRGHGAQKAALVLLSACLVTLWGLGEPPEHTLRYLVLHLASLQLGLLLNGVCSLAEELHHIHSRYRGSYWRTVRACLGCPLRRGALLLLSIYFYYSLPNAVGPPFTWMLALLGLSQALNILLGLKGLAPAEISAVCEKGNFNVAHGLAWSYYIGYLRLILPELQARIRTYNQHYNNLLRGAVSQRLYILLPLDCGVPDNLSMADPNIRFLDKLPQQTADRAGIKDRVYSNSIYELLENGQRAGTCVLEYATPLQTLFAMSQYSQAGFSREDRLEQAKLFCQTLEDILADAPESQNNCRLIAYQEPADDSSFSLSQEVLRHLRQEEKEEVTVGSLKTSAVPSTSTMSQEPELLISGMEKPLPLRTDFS
# T1 sequence (Q86WV6 140-379 G230A/H232R/R293Q limits assumed): as the sequence (Q86WV6 140-379 H232R) above, with G91A, R154Q counted along it
SMILES,hSTING Tm Shift HAQ [1],hSTING Tm Shift WT [2],hSTING Tm Shift REF [3],EC50 [4],"binding relative to OH reference compound, in words ([1]; Table 4 comment, HAQ allele hSTING)","activity relative to OH reference compound, in words ([4]; Table 5 comment, THP1 cells without digitonin)","binding relative to OH reference compound, in words ([2]; Table 4 comment, wild type hSTING)","binding relative to OH reference compound, in words [3]"
"Nc1nc2c(ncn2[C@@H]2O[C@@H]3COP(=O)(O)O[C@H]4[C@@H](O)[C@H](n5cnc6c(=O)[nH]c(N)nc65)O[C@@H]4COP(=O)(O)O[C@H]3[C@H]2O)c(=O)[nH]1 [3'3'-(G)(G), cyclic-[G(3′,5′)p-G(3′,5′)p], reference compound]",9.97 °C,6.1 °C,6.1 °C,–,–,–,–,–
"Nc1ncnc2c1ncn2[C@@H]1O[C@@H]2CO[P@@](=O)(S)O[C@H]3[C@H](F)[C@H](n4cnc5c(N)ncnc54)O[C@@H]3CO[P@@](=O)(S)O[C@H]2[C@@H]1F [Compound 7, (2R,3S,3aR,5R,7aR,9R,10S,10aR,12R,14aR)-2,9-bis(6-amino-9H-purin-9-yl)-3,10-difluoro-5,12-dimercaptooctahydro-2H,7H-difuro[3,2-d:3′,2′-j][1,3,7,9]tetraoxa[2,8]diphosphacyclododecine 5,12-dioxide]",11.2 °C,3.1 °C,0.3 °C,284 µM,–,–,–,–
"Nc1ncnc2c1ncn2[C@@H]1O[C@@H]2CO[P@@](=O)(S)O[C@H]3[C@H](F)[C@H](n4cnc5c(N)ncnc54)O[C@@H]3CO[P@](=O)(S)O[C@H]2[C@@H]1F [Compound 7a, (2R,3 S,3aR,5R,7aR,9R,10S,10aR,12S,14aR)-2,9-bis(6-amino-9H-purin-9-yl)-3,10-difluoro-5,12-dimercaptooctahydro-2H,7H-difuro [3,2-d:3′,2′-j][1,3,7,9]tetraoxa[2,8]diphosphacyclododecine 5,12-dioxide]",3.1 °C,0.1 °C,0 °C,> 150 µM,–,–,–,–
"Nc1nc2c(ncn2[C@@H]2O[C@@H]3CO[P@@](=O)(S)O[C@H]4[C@@H](F)[C@H](n5cnc6c(=O)[nH]c(N)nc65)O[C@@H]4CO[P@](=O)(S)O[C@H]3[C@H]2F)c(=O)[nH]1 [Compound 17a, 9,9′-((2R,3R,3aR,5R,7aR,9R,10R,10aR,12S,14aR)-3,10-difluoro-5,12-dimercapto-5,12-dioxidooctahydro-2H,7H-difuro [3,2-d:3′,2′-j][1,3,7,9]tetraoxa[2,8]diphosphacyclododecine-2,9-diyl)bis(2-amino-1,9-dihydro-6H-purin-6-one)]",–,–,–,> 150 µM,–,–,–,–
"Nc1ncnc2c1ncn2[C@@H]1O[C@@H]2CO[P@](=O)(S)O[C@H]3[C@@H](F)[C@H](n4cnc5c(N)ncnc54)O[C@@H]3CO[P@@](=O)(S)O[C@H]2[C@H]1O [Compound 22a, (2R,3R,3aR,5S,7aR,9R,10R,10aS,12R,14aR)-2,9-bis(6-amino-9H-purin-9-yl)-3-fluoro-10-hydroxy-5,12-dimercaptooctahydro-2H,7H-difuro[3,2-d:3′,2′-j][1,3,7,9]tetraoxa[2,8]diphosphacyclododecine 5,12-dioxide]",11.4 °C,6.4 °C,4.3 °C,99 µM,–,–,–,–
"CC(C)C(=O)Nc1nc2c(ncn2[C@@H]2O[C@@H]3CO[P@@](=O)(S)O[C@H]4[C@@H](F)[C@H](n5cnc6c(NC(=O)c7ccccc7)ncnc65)O[C@@H]4CO[P@@](=O)(S)O[C@H]3[C@H]2F)c(=O)[nH]1 [Compound 25, N-(9-((2R,3R,3aR,5R,7aR,9R,10R,10aR,12R,14aR)-3,10-difluoro-9-(2-isobutyramido-6-oxo-1,6-dihydro-9H-purin-9-yl)-5,12-dimercapto-5,12-dioxidooctahydro-2H,7H-difuro[3,2-d:3′,2′-j][1,3,7,9]tetraoxa[2,8]diphosphacyclododecin-2-yl)-9H-purin-6-yl)benzamide]",14.7 °C,10.6 °C,8.6 °C,78 µM,–,–,–,improved binding
"CC(C)C(=O)Nc1nc2c(ncn2[C@@H]2O[C@@H]3CO[P@](=O)(S)O[C@H]4[C@@H](F)[C@H](n5cnc6c(NC(=O)c7ccccc7)ncnc65)O[C@@H]4CO[P@@](=O)(S)O[C@H]3[C@H]2F)c(=O)[nH]1 [Compound 25a, N-(9-((2R,3R,3aR,5S,7aR,9R,10R,10aR,12R,14aR)-3,10-difluoro-9-(2-isobutyramido-6-oxo-1,6-dihydro-9H-purin-9-yl)-5,12-dimercapto-5,12-dioxidooctahydro-2H,7H-difuro[3,2-d:3′,2′-j][1,3,7,9]tetraoxa[2,8]diphosphacyclododecin-2-yl)-9H-purin-6-yl)benzamide]",8.9 °C,6.8 °C,5.4 °C,> 150 µM,–,–,–,–

# The remaining lines, values ahead:
hSTING Tm Shift HAQ [1],hSTING Tm Shift WT [2],hSTING Tm Shift REF [3],EC50 [4],"binding relative to OH reference compound, in words ([1]; Table 4 comment, HAQ allele hSTING)","activity relative to OH reference compound, in words ([4]; Table 5 comment, THP1 cells without digitonin)","binding relative to OH reference compound, in words ([2]; Table 4 comment, wild type hSTING)","binding relative to OH reference compound, in words [3]",SMILES
21.0 °C,11.1 °C,7.2 °C,28 µM,–,–,–,–,"Nc1nc2c(ncn2[C@@H]2O[C@@H]3CO[P@@](=O)(S)O[C@H]4[C@@H](O)[C@H](n5cnc6c(N)ncnc65)O[C@@H]4CO[P@@](=O)(S)O[C@H]3[C@H]2O)c(=O)[nH]1 [3'3'-RR-(G)(A), reference compound]"
15.3 °C,9.5 °C,10.3 °C,75 µM,–,–,–,–,"Nc1nc2c(ncn2[C@@H]2O[C@@H]3CO[P@@](=O)(S)O[C@H]4[C@@H](O)[C@H](n5cnc6c(=O)[nH]c(N)nc65)O[C@@H]4CO[P@@](=O)(S)O[C@H]3[C@H]2O)c(=O)[nH]1 [3'3'-RR-(G)(G), dithio-(Rp,Rp)-cyclic-[G(3′,5′)p-G(3′,5′)p], reference compound]"
22.6 °C,12.6 °C,11.4 °C,8 µM,improved binding,improved activity,improved binding,improved binding,"Nc1nc2c(ncn2[C@@H]2O[C@@H]3CO[P@@](=O)(S)O[C@H]4[C@@H](F)[C@H](n5cnc6c(=O)[nH]c(N)nc65)O[C@@H]4CO[P@@](=O)(S)O[C@H]3[C@H]2F)c(=O)[nH]1 [Compound 17, 9,9′-((2R,3R,3aR,5R,7aR,9R,10R,10aR,12R,14aR)-3,10-difluoro-5,12-dimercapto-5,12-dioxidooctahydro-2H,7H-difuro [3,2-d:3′,2′-j][1,3,7,9]tetraoxa[2,8]diphosphacyclododecine-2,9-diyl)bis(2-amino-1,9-dihydro-6H-purin-6-one)]"
16.5 °C,10.6 °C,7.8 °C,25 µM,–,–,–,–,"Nc1nc2c(ncn2[C@@H]2O[C@@H]3CO[P@@](=O)(S)O[C@H]4[C@@H](O)[C@H](n5cnc6c(N)ncnc65)O[C@@H]4CO[P@](=O)(S)O[C@H]3[C@H]2F)c(=O)[nH]1 [Compound 23a, 2-amino-9-((2R,3R,3aR,5S,7aR,9R,10R,10aS,12R,14aR)-9-(6-amino-9H-purin-9-yl)-3-fluoro-10-hydroxy-5,12-dimercapto-5,12-dioxidooctahydro-2H,7H-difuro[3,2-d:3′,2′-j][1,3,7,9]tetraoxa[2,8]diphosphacyclododecin-2-yl)-1,9-dihydro-6H-purin-6-one]"
